Assay results taken from PMC9532703, “A novel small molecule RK-019 inhibits FGFR2-amplification gastric cancer cell proliferation and induces apoptosis in vitro and in vivo” (Frontiers in Pharmacology, 2022).

Key:
Experiment in all cases: Kinase selectivity panel
Assay type in all cases: biochemical
Settings in all cases: read-out: Inhibition(%) @ 1 µM RK-019
AMPKα2(h) = molecular target: T1, AMPKα2(h) (Homo sapiens, UniProt P54646)
T1 construct: purchased Eurofins Discovery Services (KinaseProfiler)
Procedure, shortened: (§1)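 Inhibition ratio was measured at 1 µM test compound in an ATP-site competition binding format across 422 recombinant human kinases.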

Abl(Y253F)(h) = molecular target: T2, Abl(Y253F)(h) (Homo sapiens, UniProt P00519, Y253F)
T2 construct: purchased Eurofins Discovery Services (KinaseProfiler)
Procedure, shortened: as §1

Aurora-B(h) = molecular target: T3, Aurora-B(h) (Homo sapiens, UniProt Q96GD4)
T3 construct: purchased Eurofins Discovery Services (KinaseProfiler)
Procedure, shortened: as §1

BMPR2(h) = molecular target: T4, BMPR2(h) (Homo sapiens, UniProt Q13873)
T4 construct: purchased Eurofins Discovery Services (KinaseProfiler)
Procedure, shortened: as §1

BrSK1(h) = molecular target: T5, BrSK1(h) (Homo sapiens, UniProt Q8TDC3)
T5 construct: purchased Eurofins Discovery Services (KinaseProfiler)
T5 sequence (Q8TDC3 whole entry): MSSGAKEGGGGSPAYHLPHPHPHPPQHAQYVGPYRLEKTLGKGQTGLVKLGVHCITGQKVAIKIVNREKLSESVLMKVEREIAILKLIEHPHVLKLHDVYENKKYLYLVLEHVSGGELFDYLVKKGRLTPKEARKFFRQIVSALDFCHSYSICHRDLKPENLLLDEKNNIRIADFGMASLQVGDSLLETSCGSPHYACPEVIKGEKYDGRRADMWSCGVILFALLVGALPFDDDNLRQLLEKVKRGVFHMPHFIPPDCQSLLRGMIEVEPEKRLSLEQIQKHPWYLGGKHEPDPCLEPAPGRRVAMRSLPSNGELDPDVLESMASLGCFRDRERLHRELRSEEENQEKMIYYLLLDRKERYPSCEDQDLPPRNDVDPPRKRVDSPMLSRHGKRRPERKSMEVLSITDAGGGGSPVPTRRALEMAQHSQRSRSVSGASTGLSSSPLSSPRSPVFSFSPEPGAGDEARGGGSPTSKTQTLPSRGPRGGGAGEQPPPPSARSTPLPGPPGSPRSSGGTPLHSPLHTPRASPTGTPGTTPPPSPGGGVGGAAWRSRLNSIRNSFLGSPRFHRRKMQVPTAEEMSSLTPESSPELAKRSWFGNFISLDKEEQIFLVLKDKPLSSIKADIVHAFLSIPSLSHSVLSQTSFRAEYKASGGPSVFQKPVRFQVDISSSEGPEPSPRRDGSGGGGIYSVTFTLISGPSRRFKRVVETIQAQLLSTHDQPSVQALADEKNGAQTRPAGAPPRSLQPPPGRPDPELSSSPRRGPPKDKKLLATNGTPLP
Procedure, shortened: as §1

CDK9/cyclin T1(h) = molecular target: T6, CDK9/cyclin T1(h) (Homo sapiens, UniProt P50750)
T6 construct: purchased Eurofins Discovery Services (KinaseProfiler)
Procedure, shortened: as §1

CK2α1(h) = molecular target: T7, CK2α1(h) (Homo sapiens, UniProt P68400)
T7 construct: purchased Eurofins Discovery Services (KinaseProfiler)
Procedure, shortened: as §1

CaMKIIα(h) = molecular target: T8, CaMKIIα(h) (Homo sapiens, UniProt Q9UQM7)
T8 construct: purchased Eurofins Discovery Services (KinaseProfiler)
Procedure, shortened: as §1

CaMKIγ(h) = molecular target: T9, CaMKIγ(h) (Homo sapiens, UniProt Q96NX5)
T9 construct: purchased Eurofins Discovery Services (KinaseProfiler)
Procedure, shortened: as §1

CaMKK2(h) = molecular target: T10, CaMKK2(h) (Homo sapiens, UniProt Q96RR4)
T10 construct: purchased Eurofins Discovery Services (KinaseProfiler)
Procedure, shortened: as §1

Cdc7/cyclinB1(h) = molecular target: T11, Cdc7/cyclinB1(h) (Homo sapiens, UniProt O00311)
T11 construct: purchased Eurofins Discovery Services (KinaseProfiler)
Procedure, shortened: as §1

DAPK2(h) = molecular target: T12, DAPK2(h) (Homo sapiens, UniProt Q9UIK4)
T12 construct: purchased Eurofins Discovery Services (KinaseProfiler)
T12 sequence (Q9UIK4 whole entry): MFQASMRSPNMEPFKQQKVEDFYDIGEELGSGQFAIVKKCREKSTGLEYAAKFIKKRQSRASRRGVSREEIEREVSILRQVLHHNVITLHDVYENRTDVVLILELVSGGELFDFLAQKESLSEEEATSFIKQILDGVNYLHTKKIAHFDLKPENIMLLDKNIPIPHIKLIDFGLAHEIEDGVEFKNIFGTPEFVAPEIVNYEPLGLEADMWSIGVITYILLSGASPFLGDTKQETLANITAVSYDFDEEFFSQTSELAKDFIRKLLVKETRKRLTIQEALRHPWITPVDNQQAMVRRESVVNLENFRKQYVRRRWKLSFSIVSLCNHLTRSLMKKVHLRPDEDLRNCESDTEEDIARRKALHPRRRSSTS
Procedure, shortened: as §1

DCAMKL2(h) = molecular target: T13, DCAMKL2(h) (Homo sapiens, UniProt Q8N568)
T13 construct: purchased Eurofins Discovery Services (KinaseProfiler)
Procedure, shortened: as §1

DRAK1(h) = molecular target: T14, DRAK1(h) (Homo sapiens, UniProt Q9UEE5)
T14 construct: purchased Eurofins Discovery Services (KinaseProfiler)
Procedure, shortened: as §1

DRAK2(h) = molecular target: T15, DRAK2(h) (Homo sapiens, UniProt O94768)
T15 construct: purchased Eurofins Discovery Services (KinaseProfiler)
Procedure, shortened: as §1

EphA1(h) = molecular target: T16, EphA1(h) (Homo sapiens, UniProt P21709)
T16 construct: purchased Eurofins Discovery Services (KinaseProfiler)
Procedure, shortened: as §1

EphB1(h) = molecular target: T17, EphB1(h) (Homo sapiens, UniProt P54762)
T17 construct: purchased Eurofins Discovery Services (KinaseProfiler)
Procedure, shortened: as §1

EphB2(h) = molecular target: T18, EphB2(h) (Homo sapiens, UniProt P29323)
T18 construct: purchased Eurofins Discovery Services (KinaseProfiler)
Procedure, shortened: as §1

ErbB4(h) = molecular target: T19, ErbB4(h) (Homo sapiens, UniProt Q15303)
T19 construct: purchased Eurofins Discovery Services (KinaseProfiler)
T19 sequence (Q15303 26-1308): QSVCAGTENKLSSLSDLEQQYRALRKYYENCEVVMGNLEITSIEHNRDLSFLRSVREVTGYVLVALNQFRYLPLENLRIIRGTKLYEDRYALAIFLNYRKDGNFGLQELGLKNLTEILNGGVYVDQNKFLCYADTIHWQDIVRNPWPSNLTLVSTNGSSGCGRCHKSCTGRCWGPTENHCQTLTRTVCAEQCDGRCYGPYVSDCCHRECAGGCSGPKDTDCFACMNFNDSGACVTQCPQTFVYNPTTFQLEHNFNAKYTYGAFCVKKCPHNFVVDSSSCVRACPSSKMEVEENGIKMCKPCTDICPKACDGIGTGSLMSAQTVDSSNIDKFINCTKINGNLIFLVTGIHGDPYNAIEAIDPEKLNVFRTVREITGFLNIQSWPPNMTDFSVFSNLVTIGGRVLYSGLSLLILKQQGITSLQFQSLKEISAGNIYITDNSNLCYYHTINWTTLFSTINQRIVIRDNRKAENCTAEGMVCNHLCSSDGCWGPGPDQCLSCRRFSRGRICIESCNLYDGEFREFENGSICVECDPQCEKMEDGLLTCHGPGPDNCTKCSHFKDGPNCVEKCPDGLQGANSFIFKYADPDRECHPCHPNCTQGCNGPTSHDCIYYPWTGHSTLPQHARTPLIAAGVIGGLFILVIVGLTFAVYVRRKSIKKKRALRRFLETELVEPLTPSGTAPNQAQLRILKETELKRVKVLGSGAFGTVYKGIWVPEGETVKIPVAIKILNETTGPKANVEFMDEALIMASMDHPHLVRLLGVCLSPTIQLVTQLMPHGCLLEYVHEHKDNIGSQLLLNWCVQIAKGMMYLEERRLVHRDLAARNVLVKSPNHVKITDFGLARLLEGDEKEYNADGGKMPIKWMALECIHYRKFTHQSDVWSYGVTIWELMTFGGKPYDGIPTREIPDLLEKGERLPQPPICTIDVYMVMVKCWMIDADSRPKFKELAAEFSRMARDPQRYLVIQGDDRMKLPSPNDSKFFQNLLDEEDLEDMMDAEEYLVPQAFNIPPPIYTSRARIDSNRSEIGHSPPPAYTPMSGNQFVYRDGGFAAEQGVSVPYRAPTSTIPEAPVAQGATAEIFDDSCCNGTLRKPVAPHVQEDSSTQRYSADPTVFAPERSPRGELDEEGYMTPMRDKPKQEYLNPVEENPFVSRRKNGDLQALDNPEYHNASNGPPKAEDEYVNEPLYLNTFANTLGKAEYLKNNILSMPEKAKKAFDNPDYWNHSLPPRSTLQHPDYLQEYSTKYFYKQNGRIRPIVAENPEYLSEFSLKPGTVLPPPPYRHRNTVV
Procedure, shortened: as §1

HIPK1(h) = molecular target: T20, HIPK1(h) (Homo sapiens, UniProt Q86Z02)
T20 construct: purchased Eurofins Discovery Services (KinaseProfiler)
Procedure, shortened: as §1

IGF-1R(h) = molecular target: T21, IGF-1R(h) (Homo sapiens, UniProt P08069)
T21 construct: purchased Eurofins Discovery Services (KinaseProfiler)
Procedure, shortened: as §1

IKKβ(h) = molecular target: T22, IKKβ(h) (Homo sapiens, UniProt O14920)
T22 construct: purchased Eurofins Discovery Services (KinaseProfiler)
Procedure, shortened: as §1

IR(h), activated = molecular target: T23, IR(h), activated (Homo sapiens, UniProt P06213)
T23 construct: purchased Eurofins Discovery Services (KinaseProfiler)
Procedure, shortened: as §1

IRAK1(h) = molecular target: T24, IRAK1(h) (Homo sapiens, UniProt P51617)
T24 construct: purchased Eurofins Discovery Services (KinaseProfiler)
Procedure, shortened: as §1

IRE1(h) = molecular target: T25, IRE1(h) (Homo sapiens, UniProt O75460)
T25 construct: purchased Eurofins Discovery Services (KinaseProfiler)
Procedure, shortened: as §1

LOK(h) = molecular target: T26, LOK(h) (Homo sapiens, UniProt O94804)
T26 construct: purchased Eurofins Discovery Services (KinaseProfiler)
Procedure, shortened: as §1

Lyn(m) = molecular target: T27, Lyn(m) (Mus musculus, UniProt P25911)
T27 construct: purchased Eurofins Discovery Services (KinaseProfiler)

MEKK3(h) = molecular target: T28, MEKK3(h) (Homo sapiens, UniProt Q99759)
T28 construct: purchased Eurofins Discovery Services (KinaseProfiler)
Procedure, shortened: as §1

MKK6(h) = molecular target: T29, MKK6(h) (Homo sapiens, UniProt P52564)
T29 construct: purchased Eurofins Discovery Services (KinaseProfiler)
T29 sequence (P52564 whole entry): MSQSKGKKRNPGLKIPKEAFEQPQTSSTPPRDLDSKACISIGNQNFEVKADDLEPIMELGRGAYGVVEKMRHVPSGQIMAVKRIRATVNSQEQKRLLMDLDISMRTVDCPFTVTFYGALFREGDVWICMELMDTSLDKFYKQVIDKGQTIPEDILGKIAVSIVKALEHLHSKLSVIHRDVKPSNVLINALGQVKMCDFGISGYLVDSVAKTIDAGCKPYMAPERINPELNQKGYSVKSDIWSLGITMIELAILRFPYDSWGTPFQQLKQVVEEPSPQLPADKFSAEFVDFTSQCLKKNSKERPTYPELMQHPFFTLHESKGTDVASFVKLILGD
Procedure, shortened: as §1

Met(Y1248D)(h) = molecular target: T30, Met(Y1248D)(h) (Homo sapiens, UniProt P08581, Y1230D)
T30 construct: purchased Eurofins Discovery Services (KinaseProfiler)
Procedure, shortened: as §1

PAK5(h) = molecular target: T31, PAK5(h) (Homo sapiens, UniProt Q9P286)
T31 construct: purchased Eurofins Discovery Services (KinaseProfiler)
T31 sequence (Q9P286 whole entry): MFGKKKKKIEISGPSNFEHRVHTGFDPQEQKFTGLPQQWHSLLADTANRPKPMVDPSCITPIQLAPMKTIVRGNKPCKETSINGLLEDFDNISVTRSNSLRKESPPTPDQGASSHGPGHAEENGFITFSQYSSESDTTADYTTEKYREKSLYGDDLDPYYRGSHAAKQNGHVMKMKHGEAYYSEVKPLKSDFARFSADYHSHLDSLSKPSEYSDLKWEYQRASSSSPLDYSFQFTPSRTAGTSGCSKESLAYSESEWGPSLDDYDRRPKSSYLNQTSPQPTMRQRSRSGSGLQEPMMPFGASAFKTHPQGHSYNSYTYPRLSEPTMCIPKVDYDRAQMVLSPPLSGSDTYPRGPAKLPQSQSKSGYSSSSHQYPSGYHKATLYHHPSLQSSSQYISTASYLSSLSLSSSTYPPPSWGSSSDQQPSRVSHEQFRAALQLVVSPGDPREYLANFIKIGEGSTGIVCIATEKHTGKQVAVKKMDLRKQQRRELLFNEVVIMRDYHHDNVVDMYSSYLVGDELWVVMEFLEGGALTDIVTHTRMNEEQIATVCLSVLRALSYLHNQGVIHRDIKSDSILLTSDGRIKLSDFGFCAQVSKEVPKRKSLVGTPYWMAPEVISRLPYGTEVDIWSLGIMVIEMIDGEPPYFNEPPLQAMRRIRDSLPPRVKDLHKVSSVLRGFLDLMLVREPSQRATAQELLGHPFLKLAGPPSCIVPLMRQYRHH
Procedure, shortened: as §1

PRAK(h) = molecular target: T32, PRAK(h) (Homo sapiens, UniProt Q8IW41)
T32 construct: purchased Eurofins Discovery Services (KinaseProfiler)
Procedure, shortened: as §1

Plk1(h) = molecular target: T33, Plk1(h) (Homo sapiens, UniProt P53350)
T33 construct: purchased Eurofins Discovery Services (KinaseProfiler)
Procedure, shortened: as §1

Ret(V804M)(h) = molecular target: T34, Ret(V804M)(h) (Homo sapiens, UniProt P07949, V804M)
T34 construct: purchased Eurofins Discovery Services (KinaseProfiler)
T34 sequence (P07949 29-1114 V804M): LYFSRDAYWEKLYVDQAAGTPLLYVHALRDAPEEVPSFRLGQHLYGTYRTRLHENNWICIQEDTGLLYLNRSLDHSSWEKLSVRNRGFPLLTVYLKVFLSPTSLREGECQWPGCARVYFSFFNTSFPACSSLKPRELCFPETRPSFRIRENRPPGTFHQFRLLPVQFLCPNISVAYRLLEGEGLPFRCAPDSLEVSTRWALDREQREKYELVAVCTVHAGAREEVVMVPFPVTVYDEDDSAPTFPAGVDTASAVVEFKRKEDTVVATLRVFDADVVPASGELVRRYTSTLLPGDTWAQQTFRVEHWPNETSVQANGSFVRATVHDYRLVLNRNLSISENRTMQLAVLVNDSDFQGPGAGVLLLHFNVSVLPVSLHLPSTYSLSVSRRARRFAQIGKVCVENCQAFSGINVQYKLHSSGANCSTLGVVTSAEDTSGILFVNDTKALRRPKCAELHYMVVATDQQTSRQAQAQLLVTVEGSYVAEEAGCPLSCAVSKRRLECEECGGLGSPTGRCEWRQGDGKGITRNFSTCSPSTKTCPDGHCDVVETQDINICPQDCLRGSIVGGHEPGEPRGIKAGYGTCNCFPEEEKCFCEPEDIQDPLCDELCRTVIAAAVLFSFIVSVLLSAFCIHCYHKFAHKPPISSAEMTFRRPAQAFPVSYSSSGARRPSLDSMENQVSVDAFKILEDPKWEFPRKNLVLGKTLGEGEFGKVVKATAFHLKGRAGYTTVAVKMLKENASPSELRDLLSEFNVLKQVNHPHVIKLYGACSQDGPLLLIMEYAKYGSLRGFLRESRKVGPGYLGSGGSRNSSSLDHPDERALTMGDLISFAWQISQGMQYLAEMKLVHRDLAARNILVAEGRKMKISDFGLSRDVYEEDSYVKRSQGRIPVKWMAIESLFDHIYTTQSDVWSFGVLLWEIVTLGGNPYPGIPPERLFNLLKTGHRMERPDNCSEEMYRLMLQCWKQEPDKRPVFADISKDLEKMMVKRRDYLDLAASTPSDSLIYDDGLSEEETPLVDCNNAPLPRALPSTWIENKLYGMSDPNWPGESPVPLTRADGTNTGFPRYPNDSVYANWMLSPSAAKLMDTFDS
Procedure, shortened: as §1

TLK2(h) = molecular target: T35, TLK2(h) (Homo sapiens, UniProt Q86UE8)
T35 construct: purchased Eurofins Discovery Services (KinaseProfiler)
Procedure, shortened: as §1

TRB2(h) = molecular target: T36, TRB2(h) (Homo sapiens, UniProt Q92519)
T36 construct: purchased Eurofins Discovery Services (KinaseProfiler)
T36 sequence (Q92519 whole entry): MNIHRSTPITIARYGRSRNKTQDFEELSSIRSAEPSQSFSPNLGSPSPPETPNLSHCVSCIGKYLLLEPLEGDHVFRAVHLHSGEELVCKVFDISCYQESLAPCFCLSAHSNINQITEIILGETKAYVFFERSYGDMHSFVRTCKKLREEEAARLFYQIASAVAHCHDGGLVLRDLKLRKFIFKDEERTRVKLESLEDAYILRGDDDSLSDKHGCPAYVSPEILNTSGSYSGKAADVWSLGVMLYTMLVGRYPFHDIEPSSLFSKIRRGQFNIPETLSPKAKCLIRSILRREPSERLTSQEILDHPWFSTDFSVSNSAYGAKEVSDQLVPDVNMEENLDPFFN
Procedure, shortened: as §1

mTOR(h) = molecular target: T37, mTOR(h) (Homo sapiens, UniProt P42345)
T37 construct: purchased Eurofins Discovery Services (KinaseProfiler)
Procedure, shortened: as §1

SMILES: COc1cc(OC)cc(N(CCN[C@H](C)CO)c2ccc3ncc(-c4cnn(C)c4)c(=O)n3c2)c1 [RK-019, (R)-7-((3,5-dimethoxyphenyl) (2-((1-hydroxypropan-2-yl)amino)ethyl)amino)-3-(1-methyl-1H-pyrazol-4-yl)-4H-pyrido [1,2-a]pyrimidin-4-one]
- activity at 1 µM (AMPKα2(h)): 109%
- activity at 1 µM (Abl(Y253F)(h)): 54%
- activity at 1 µM (Aurora-B(h)): 87%
- activity at 1 µM (BMPR2(h)): 116%
- activity at 1 µM (BrSK1(h)): 106%
- activity at 1 µM (CDK9/cyclin T1(h)): 99%
- activity at 1 µM (CK2α1(h)): 95%
- activity at 1 µM (CaMKIIα(h)): 64%
- activity at 1 µM (CaMKIγ(h)): 93%
- activity at 1 µM (CaMKK2(h)): 95%
- activity at 1 µM (Cdc7/cyclinB1(h)): 87%
- activity at 1 µM (DAPK2(h)): 97%
- activity at 1 µM (DCAMKL2(h)): 126%
- activity at 1 µM (DRAK1(h)): 95%
- activity at 1 µM (DRAK2(h)): 96%
- activity at 1 µM (EphA1(h)): 19%
- activity at 1 µM (EphB1(h)): 58%
- activity at 1 µM (EphB2(h)): 96%
- activity at 1 µM (ErbB4(h)): 105%
- activity at 1 µM (HIPK1(h)): 93%
- activity at 1 µM (IGF-1R(h)): 104%
- activity at 1 µM (IKKβ(h)): 90%
- activity at 1 µM (IR(h), activated): 95%
- activity at 1 µM (IRAK1(h)): 103%
- activity at 1 µM (IRE1(h)): 93%
- activity at 1 µM (LOK(h)): 76%
- activity at 1 µM (Lyn(m)): 23%
- activity at 1 µM (MEKK3(h)): 103%
- activity at 1 µM (MKK6(h)): 83%
- activity at 1 µM (Met(Y1248D)(h)): 103%
- activity at 1 µM (PAK5(h)): 101%
- activity at 1 µM (PRAK(h)): 95%
- activity at 1 µM (Plk1(h)): 117%
- activity at 1 µM (Ret(V804M)(h)): 56%
- activity at 1 µM (TLK2(h)): 124%
- activity at 1 µM (TRB2(h)): 136%
- activity at 1 µM (mTOR(h)): 105%
